Reference: patent publication US20250197372A1 (priority 2020, published 2025)
Like-named read-outs stand apart in the source and are kept apart here.

Key:
Type in all cases: biochemical
[1] = target: recombinant human GAA (acid alpha-glucosidase) (Homo sapiens, UniProt P10253); assay: Acid alpha-glucosidase (GAA) assay (4-methylumbelliferyl-alpha-D-pyranoside substrate, fluorescence)
Method in brief: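 IC50 from 4-PL curve fit of percent inhibition, based on fluorescence (365/440 nm) of released methylumbelliferone relative to uninhibited enzyme. Compound dilutions and human GAA incubated 60 min, 37 °C, before 20 min substrate reaction at 37 °C, quenched at pH 10.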

[2] = target: rat maltase (partially purified alpha-glucosidase from intestinal rat powder); assay: Intestinal alpha-glucosidase assay, maltose substrate (Glucose GO Kit)
Method in brief: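 First step: 60 min, 37 °C, compound with partially purified rat intestinal alpha-glucosidase. Next, maltose or sucrose for 30 min at 37 °C, ended at 90 °C for 5 min. Glucose quantified enzymatically; concentration–inhibition data fitted 4-PL for IC50.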

[3] = target: T1, recombinant alpha-glucosidase II (murine full-length glucosidase II, alpha and beta subunits, Glu 2) (Mus musculus, UniProt Q8BHN3); assay: Alpha-glucosidase II assay (4-methylumbelliferyl-alpha-D-pyranoside substrate, fluorescence)
T1 construct: made in house; host or cells: HEK-293T cells transduced with BacMam viruses (75% alpha, 25% beta); protein harvested from culture supernatant
T1 sequence (O08795 15-521): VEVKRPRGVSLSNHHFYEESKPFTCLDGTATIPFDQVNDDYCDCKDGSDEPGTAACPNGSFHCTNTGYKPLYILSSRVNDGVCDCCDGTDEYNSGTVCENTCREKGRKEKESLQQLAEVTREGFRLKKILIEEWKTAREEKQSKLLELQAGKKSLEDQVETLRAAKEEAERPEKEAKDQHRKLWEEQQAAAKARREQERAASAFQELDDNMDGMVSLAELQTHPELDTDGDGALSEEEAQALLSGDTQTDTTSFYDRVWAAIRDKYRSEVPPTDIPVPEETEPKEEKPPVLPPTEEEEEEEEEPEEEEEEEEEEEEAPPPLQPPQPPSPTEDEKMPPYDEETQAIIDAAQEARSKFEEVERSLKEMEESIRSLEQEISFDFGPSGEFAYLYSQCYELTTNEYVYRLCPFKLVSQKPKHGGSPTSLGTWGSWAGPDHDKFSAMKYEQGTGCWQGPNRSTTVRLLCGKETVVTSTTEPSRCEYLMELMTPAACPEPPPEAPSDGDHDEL
T1 sequence (Q8BHN3 33-944): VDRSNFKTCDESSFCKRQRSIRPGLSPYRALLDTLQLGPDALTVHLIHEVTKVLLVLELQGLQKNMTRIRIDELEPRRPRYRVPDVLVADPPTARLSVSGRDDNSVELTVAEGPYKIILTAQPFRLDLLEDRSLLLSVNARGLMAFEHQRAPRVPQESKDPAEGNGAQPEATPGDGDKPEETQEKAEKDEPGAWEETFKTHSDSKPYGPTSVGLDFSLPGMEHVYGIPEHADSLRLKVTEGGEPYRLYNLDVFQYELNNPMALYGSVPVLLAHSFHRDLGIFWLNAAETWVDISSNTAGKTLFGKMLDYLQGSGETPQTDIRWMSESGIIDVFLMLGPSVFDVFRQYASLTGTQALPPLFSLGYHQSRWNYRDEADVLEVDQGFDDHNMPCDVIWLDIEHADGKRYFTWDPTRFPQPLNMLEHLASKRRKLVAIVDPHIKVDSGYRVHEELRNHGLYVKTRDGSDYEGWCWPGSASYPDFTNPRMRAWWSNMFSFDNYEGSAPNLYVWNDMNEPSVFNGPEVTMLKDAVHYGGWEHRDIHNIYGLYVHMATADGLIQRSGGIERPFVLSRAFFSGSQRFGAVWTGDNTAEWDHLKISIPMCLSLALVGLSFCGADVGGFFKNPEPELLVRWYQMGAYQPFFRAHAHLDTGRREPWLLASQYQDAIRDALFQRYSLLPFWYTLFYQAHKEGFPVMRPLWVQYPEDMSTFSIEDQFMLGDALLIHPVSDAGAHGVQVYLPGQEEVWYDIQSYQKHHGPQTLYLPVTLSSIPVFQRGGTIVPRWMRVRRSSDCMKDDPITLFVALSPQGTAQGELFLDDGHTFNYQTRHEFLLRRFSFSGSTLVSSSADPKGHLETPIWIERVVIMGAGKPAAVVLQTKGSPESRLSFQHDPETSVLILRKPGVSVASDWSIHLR

[4] = Glucosidase 2, read-out: Glu2 IC50

| SMILES | IC50 [1] [nM] | IC50 [2] [nM] | IC50 [3, 4] [nM] | IC50 [3] [nM] |
| --- | --- | --- | --- | --- |
| [N-]=[N+]=Nc1ccc(NCCc2ccc(CCN3C[C@H](O)[C@@H](O)[C@H](O)[C@H]3CO)cc2)c([N+](=O)[O-])c1 [Compound 1200, (2R,3R,4R,5S)-1-[2-(4-{2-[(4-azido-2-nitrophenyl)amino]ethyl}phenyl)ethyl]-2-(hydroxymethyl)piperidine-3,4,5-triol] | 1160 | 81 | 6 | – |
| OC[C@@H]1[C@@H](O)[C@H](O)[C@@H](O)CN1CCCCCCNc1ccc(-c2cccnn2)cc1Cl [Compound 1202, (2R,3R,4R,5S)-1-(6-{[2-chloro-4-(pyridazin-3-yl)phenyl]amino}hexyl)-2-(hydroxymethyl)piperidine-3,4,5-triol] | 39 | < 1 | < 1 | – |
| OC[C@@H]1[C@@H](O)[C@H](O)[C@@H](O)CN1CCCCCCNc1ccc(-c2ncco2)cc1Cl [Compound 1203, (2R,3R,4R,5S)-1-(6-{[2-chloro-4-(1,3-oxazol-2-yl)phenyl]amino}hexyl)-2-(hydroxymethyl)piperidine-3,4,5-triol] | 40 | < 1 | < 1 | – |
| COc1cc(-c2ncco2)ccc1NCCCCCCN1C[C@H](O)[C@@H](O)[C@H](O)[C@H]1CO [Compound 1207, (2R,3R,4R,5S)-2-(hydroxymethyl)-1-(6-{[2-methoxy-4-(1,3-oxazol-2-yl)phenyl]amino}hexyl)piperidine-3,4,5-triol] | 75 | 7 | 14 | – |
| [N-]=[N+]=Nc1ccc(NCC/C=C/CCN2C[C@H](O)[C@@H](O)[C@H](O)[C@H]2CO)c([N+](=O)[O-])c1 [Compound 1260, (2R,3R,4R,5S)-1-[(3E)-6-[(4-azido-2-nitrophenyl)amino]hex-3-en-1-yl]-2-(hydroxymethyl)piperidine-3,4,5-triol] | 44 | < 1 | – | 15 |
| O=[N+]([O-])c1cc(CCO)ccc1NCCCCCCN1C[C@H](O)[C@@H](O)[C@H](O)[C@H]1CO [Compound 1292, (2R,3R,4R,5S)-1-(6-{[4-(2-hydroxyethyl)-2-nitrophenyl]amino}hexyl)-2-(hydroxymethyl)piperidine-3,4,5-triol] | 28 | 11 | 8.6 | – |
| CS(=O)(=O)Nc1ccc(NCCCCCCN2C[C@H](O)[C@@H](O)[C@H](O)[C@H]2CO)c([N+](=O)[O-])c1 [Compound 1300, N-[3-nitro-4-({6-[(2R,3R,4R,5S)-3,4,5-trihydroxy-2-(hydroxy-methyl)piperidin-1-yl]hexyl}amino)phenyl]methanesulfonamide] | 20 | < 10 | 14 | – |
| COCCc1ccc(CCCCCN2C[C@H](O)[C@@H](O)[C@H](O)[C@H]2CO)cc1 [Compound 1307, (2R,3R,4R,5S)-2-(hydroxymethyl)-1-{5-[4-(2-methoxyethyl)phenyl]pentyl}piperidine-3,4,5-triol] | 950 | 32 | 77 | – |
| Cc1cc(-c2ccco2)ccc1NCc1ccc(CN2C[C@H](O)[C@@H](O)[C@H](O)[C@H]2CO)cc1 [Compound 1324, (2R,3R,4R,5S)-1-{[4-({[4-(furan-2-yl)-2-methylphenyl]amino}methyl)phenyl]methyl}-2-(hydroxymethyl)piperidine-3,4,5-triol] | 80 | < 1 | 318 | – |
| Cc1cc(NCc2cccc(CN3C[C@H](O)[C@@H](O)[C@H](O)[C@H]3CO)n2)cc(-c2ccc[nH]2)c1 [Compound 1335, (2R,3R,4R,5S)-2-(hydroxymethyl)-1-{[6-({[3-methyl-5-(1H-pyrrol-2-yl)phenyl]amino}methyl)pyridin-2-yl]methyl}piperidine-3,4,5-triol] | 470 | 231 | – | > 100000 |
| Cc1nc2cc(-c3ncccn3)ccc2n1CCCCCCN1C[C@H](O)[C@@H](O)[C@H](O)[C@H]1CO [Compound 1339, (2R,3R,4R,5S)-2-(hydroxymethyl)-1-{6-[2-methyl-5-(pyrimidin-2-yl)-1H-1,3-benzodiazol-1-yl]hexyl}piperidine-3,4,5-triol] | 240 | 14 | 194 | – |
